24 compounds from US6984643B2, “2,5-substituted pyrimidine derivatives-CCR-3 receptor antagonists” (Roche Palo Alto LLC, priority 2002, dated 2006) can be followed below.

Like-named read-outs stand apart in the source and are kept apart here.

The target in the assay is T1, CCR-3 receptor (Homo sapiens, UniProt P51677).
T1 construct: expressed in transfected cells; host or cells: L1.2 (murine pre-B lymphoma line)
T1 sequence (P51677 1-355): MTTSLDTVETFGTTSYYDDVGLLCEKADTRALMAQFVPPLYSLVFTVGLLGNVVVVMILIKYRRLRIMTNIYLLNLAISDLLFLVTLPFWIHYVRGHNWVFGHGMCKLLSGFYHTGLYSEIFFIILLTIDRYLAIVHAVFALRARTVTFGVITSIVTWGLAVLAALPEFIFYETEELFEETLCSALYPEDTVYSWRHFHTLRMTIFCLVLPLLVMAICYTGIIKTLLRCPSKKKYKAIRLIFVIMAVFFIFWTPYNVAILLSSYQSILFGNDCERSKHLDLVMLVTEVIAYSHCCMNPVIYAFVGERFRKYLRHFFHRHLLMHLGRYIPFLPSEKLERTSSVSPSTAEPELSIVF
Briefly: CCR-3 Receptor Binding Assay in vitro (inhibition of 125I eotaxin binding to CCR-3 L1.2 transfectant cells). How it is done:
The CCR-3 antagonistic activity of the compounds of the invention was determined by their ability to inhibit the binding of ^125I eotaxin to CCR-3 L1.2 transfectant cells (see Ponath, P. D. et al., J. Exp. Med., Vol. 183, 2437-2448, (1996)).
The assay was performed in Costar 96-well polypropylene round bottom plates. Test compounds were dissolved in DMSO and then diluted with binding buffer (50 mM HEPES, 1 mM CaCl2, 5 mM MgCl2, 0.5% bovine serum albumin (BSA), 0.02% sodium azide, pH 7.24) such that the final DMSO concentration was 2%. Each well was filled with 25 μl of the test solution or only buffer with DMSO (control samples) followed by the addition of 25 μl of ^125I-eotaxin (100 pmol) (NEX314, New England Nuclear, Boston, Mass.) and 1.5×10^5 of the CCR-3 L1.2 transfected cells in 25 μl binding buffer. The final reaction volume was 75 μl.
After incubating the reaction mixture for 1 h at room temperature, the reaction was terminated by filtering the reaction mixture through polyethylenimine treated Packard Unifilter GF/C filter plate (Packard, Chicago, Ill.). The filters were washed four times with ice cold wash buffer containing 10 mM HEPES and 0.5M sodium chloride (pH 7.2) and dried at 65° C. for approximately 10 min. 25 μl/well of Microscint-20™ scintillation fluid (Packard) was added and the radioactivity retained on the filters was determined by using the Packard TopCount™.
The IC50 value (concentration of test compound required to reduce ^125I-eotaxin binding to the CCR-3 L 1.2 transfected cells by 50%) for compounds in Table I of the invention was between 0.02 and 200 μM, preferably between 0.02 and 10 μM.

Setting [1] is: concentration reducing 125I-eotaxin binding to CCR-3 L1.2 transfected cells by 50%, read-out: CCR-3 IC50.

As a reminder, the IC50 is the point on the concentration scale where inhibition reaches its midpoint.

Consider `COc1ccc(-c2cnc(SCC(=O)NCC3CCCN(Cc4cc(Br)c(Br)s4)C3)nc2)cc1OC` (stereo not drawn) [Compound 63, N-[1-(4,5-dibromo-thiophen-2-ylmethyl)-piperidin-3-ylmethyl]-2-[5-(3,4-dimethoxy-phenyl)-pyrimidin-2-ylsulfanyl]-acetamide], for which the IC50 under setting [1] was 66 nM.

With `COc1ccc(-c2cnc(OCC(=O)NCC3CCCN(Cc4cccc(Cl)c4Cl)C3)nc2)cc1` (stereo not drawn) [Compound 46, N-[1-(2,3-dichloro-benzyl)-piperidin-3-ylmethyl]-2-[5-(4-methoxy-phenyl)-pyrimidin-2-yloxy]-acetamide], under setting [1], the IC50 was found to be 2110 nM.

For the compound `COc1ccc(-c2cnc(SCC(=O)NCC3CCCN(Cc4ccc5c(c4)CCC5)C3)nc2)cc1` (stereo not drawn) [Compound 40], the IC50 under setting [1] turned out to be 1390 nM.

Regarding `O=C(CSc1ncc(-c2ccccc2)cn1)NCC1CCCN(Cc2ccc(Cl)c(Cl)c2)C1` (stereo not drawn) [Compound 42, N-[1-(3,4-dichloro-benzyl)-piperidin-3-ylmethyl]-2-(5-phenyl-pyrimidin-2-ylsulfanyl)-acetamide], the IC50 under setting [1] was found to be 1560 nM.

`COc1ccc(-c2cnc(SCC(=O)NCC3CCCN(Cc4ccc(Cl)c(Cl)c4)C3)nc2)cc1OC` (stereo not drawn) [Compound 2, N-[1-(3,4-dichloro-benzyl)-piperidin-3-ylmethyl]-2-[5-(3,4-dimethoxy-phenyl)-pyrimidin-2-ylsulfanyl]-acetamide]: under setting [1], the IC50 was 29 nM.

Take `COc1ccc(-c2cnc(CCC(=O)NCC3CCCN(Cc4ccc5c(c4)OCO5)C3)nc2)cc1` (stereo not drawn) [Compound 44, N-(1-benzo[1,3]-dioxol-5-ylmethyl-piperidin-3-ylmethyl)-3-[5-(4-methoxy-phenyl)-pyrimidin-2-yl]-propionamide]: under setting [1], the IC50 was 2080 nM.

As for `COc1ccc(-c2cnc(SCC(=O)NCC3CCCN(Cc4ccc5c(c4)OCO5)C3)nc2)cc1OC` (stereo not drawn) [Compound 13, N-(1-benzo[1,3]-dioxol-5-ylmethyl-piperidin-3-ylmethyl]-2-[5-(3,4-dimethoxy-phenyl)-pyrimidin-2-ylsulfanyl]-acetamide], under setting [1], the IC50 amounted to 205 nM.

Regarding `COc1ccc(-c2cnc(SCC(=O)NCC3CCCN(Cc4ccc(Cl)c(F)c4)C3)nc2)cc1OC` (stereo not drawn) [Compound 33, N-[1-(4-chloro-3-fluoro-benzyl)-piperidin-3-ylmethyl]-2-[5-(3,4-dimethoxy-phenyl)-pyrimidin-2-ylsulfanyl]-acetamide], the IC50 under setting [1] amounted to 973 nM.

With `COc1ccc(-c2cnc(SCC(=O)NCC3CCCN(Cc4ccc(F)c(F)c4)C3)nc2)cc1` (stereo not drawn) [Compound 39, N-[1-(3,4-difluoro-benzyl)-piperidin-3-ylmethyl]-2-[5-(4-methoxy-phenyl)-pyrimidin-2-ylsulfanyl]-acetamide], under setting [1], the IC50 came out at 1370 nM.

Take `COc1ccc(-c2cnc(SCC(=O)NCC3CCCN(C(=O)CCc4ccc(Cl)cc4)C3)nc2)cc1OC` (racemic) [Compound 70, (±)-N-{1-[3-(4-Chlorophenyl)-propionyl]-piperidin-3-ylmethyl}-2-[5-(3,4-dimethoxy-phenyl)-pyrimidin-2-ylsulfanyl]-acetamide]: under “stated in text for the compound where Z is —C(═O)—, assay not given, read-out: IC50”, the IC50 was 1920 nM.

As to `COc1ccc(-c2cnc(CCC(=O)NCC3CCCN(Cc4ccc5c(c4)CCC5)C3)nc2)cc1OC` (stereo not drawn) [Compound 34, 3-[5-(3,4-dimethoxy-phenyl)-pyrimidin-2-yl]-N-(1-indan-5-yl-methyl-piperidin-3-ylmethyl)-propion-amide], the IC50 under setting [1] is 994 nM.

As for `O=C(CSc1ncc(-c2ccccc2)cn1)NCC1CCCN(Cc2ccc(F)c(F)c2)C1` (stereo not drawn) [Compound 49, N-[1-(3,4-difluoro-benzyl)-piperidin-3-ylmethyl]-2-(5-phenyl-pyrimidin-2-ylsulfanyl)-acetamide], the IC50 under setting [1] came out at 2810 nM.

On to `COc1ccc(-c2cnc(CCC(=O)NCC3CCCN(Cc4ccc(Cl)c(Cl)c4)C3)nc2)cc1OC` (stereo not drawn) [Compound 9, N-[1-(3,4-dichloro-benzyl)-piperidin-3-ylmethyl]-3-[5-(3,4-dimethoxy-phenyl)-pyrimidin-2-yl]-propionamide], for which the IC50 under setting [1] came out at 152 nM.

For the compound `COc1ccc(-c2cnc(OCC(=O)NCC3CCCN(Cc4cccc(Cl)c4Cl)C3)nc2)cc1OC` (stereo not drawn) [Compound 26, N-[1-(2,3-dichloro-benzyl)-piperidin-3-ylmethyl]-2-[5-(3,4-dimethoxy-phenyl)-pyrimidin-2-yloxy]-acetamide], under setting [1], the half-inhibitory concentration (IC50) was found to be 507 nM.

For `O=C(CSc1ncc(-c2ccccc2)cn1)NCC1CCCN(Cc2ccc(Cl)c(C(F)(F)F)c2)C1` (stereo not drawn) [Compound 48, N-[1-(4-chloro-3-trifluoromethyl-benzyl)-piperidin-3-ylmethyl]-2-(5-phenyl-pyrimidin-2-yl-sulfanyl)-acetamide], the concentration for half-maximal inhibition (IC50) under setting [1] stood at 2410 nM.

Take `COc1ccc(-c2cnc(CCC(=O)NCC3CCCN(Cc4ccc(Cl)c(Cl)c4)C3)nc2)cc1OC` (stereo not drawn) [Compound 10, N-[1-(3,4-dichloro-benzyl)-piperidin-3-ylmethyl]-3-[5-(3,4-dimethoxy-phenyl)-pyrimidin-2-yl]-propionamide]: the IC50 under setting [1] is 164 nM.

With `COc1cc(-c2cnc(CCC(=O)NCC3CCCN(Cc4cccc(Cl)c4Cl)C3)nc2)cc(OC)c1OC` (stereo not drawn) [Compound 57, N-[1-(2,3-dichloro-benzyl)-piperidin-3-ylmethyl]-3-[5-(3,4,5-trimethoxy-phenyl)-pyrimidin-2-yl]-propionamide], the IC50 under setting [1] came out at 12000 nM.

Regarding `COc1ccc(-c2cnc(SCC(=O)NCC3CCCN(Cc4ccc5cc[nH]c5c4)C3)nc2)cc1` (stereo not drawn) [Compound 30], the IC50 under setting [1] came out at 731 nM.

In the case of `O=C(CSc1ncc(-c2ccccc2)cn1)NCC1CCCN(Cc2ccc(O)c(O)c2)C1` (stereo not drawn) [Compound 38, N-[1-(3,4-dihydroxy-benzyl)-piperidin-3-ylmethyl]-2-(5-phenyl-pyrimidin-2-ylsulfanyl)-acetamide], the IC50 under setting [1] is 1350 nM.

In the case of `COc1ccc(-c2cnc(CCC(=O)NCC3CCCN(Cc4cccc(Cl)c4Cl)C3)nc2)cc1` (stereo not drawn) [Compound 23, N-[1-(2,3-dichloro-benzyl)-piperidin-3-ylmethyl]-3-[5-(4-methoxy-phenyl)-pyrimidin-2-yl]-propionamide], the IC50 under setting [1] was 403 nM.

For the compound `COc1ccc(-c2cnc(SCC(=O)NCC3CCCN(Cc4ccccc4)C3)nc2)cc1OC` (stereo not drawn) [Compound 36, N-(1-benzyl-piperidin-3-ylmethyl)-2-[5-(3,4-dimethoxy-phenyl)-pyrimidin-2-ylsulfanyl]-acetamide], the half-inhibitory concentration (IC50) under setting [1] stood at 1060 nM.

`COc1ccc(-c2cnc(OCC(=O)NCC3CCCN(Cc4ccc5c(c4)OCO5)C3)nc2)cc1OC` (stereo not drawn) [Compound 51, N-(1-benzo[1,3]-dioxol-5-ylmethyl-piperidin-3-ylmethyl)-2-[5-(3,4-dimethoxy-phenyl)-pyrimidin-2-yloxy]-acetamide]: the IC50 under setting [1] was 4640 nM.

For the compound `COc1ccc(-c2cnc(SCC(=O)NCC3CCCN(Cc4cc(Cl)c(Cl)s4)C3)nc2)cc1OC` (stereo not drawn) [Compound 64, N-[1-(4,5-dichloro-thiophen-2-ylmethyl)-piperidin-3-ylmethyl]-2-[5-(3,4-dimethoxy-phenyl)-pyrimidin-2-ylsulfanyl]-acetamide], the IC50 under setting [1] turned out to be 81 nM.

Turning to `O=C(CSc1ncc(-c2ccccc2)cn1)NCC1CCCN(Cc2ccc3c(c2)OCO3)C1` (stereo not drawn) [Compound 41, N-(1-benzo[1,3]-dioxol-5-ylmethyl-piperidin-3-ylmethyl)-2-(5-phenyl-pyrimidin-2-ylsulfanyl)-acetamide], the IC50 under setting [1] was found to be 1560 nM.
